Experimental data taken from US20250236616A1, “IMMUNOMODULATING AZALIDES” (Zoetis Services LLC, priority 2021, published 2025).
Converted amounts (≈) assume the structure as drawn.

How the values were obtained:
E. coli = assay: MIC, E. coli; assay type: cell-based; conditions: Escherichia coli
Description: (§1) Primary screening of the compounds of the invention included the evaluation of antibacterial activity of analogs through determination of microbial inhibition concentration (MIC) as per CLSI guidelines. The screening panel included the relevant BRD pathogens: 1) M. haemolytica (e.g., 12726, 46571 and 49023, all AHDRCC; and 33396 (ATCC)); and 2) P. multocida (e.g., 34135 and 46572 (both AHDRCC) and 43137 (ATCC)). In some instances, H. somni (A700025K) pathogens were also included in the screening panel. The AHDRCC strains originated from the Zoetis BRD/SRD surveillance program and refer to the Animal Health Development and Research Culture Collection. In addition, the screen assessed S. aureus (29213 ATCC) as a representative Gram-positive isolate, E.faecalis (19433 ATCC) as a commensal gram-positive gastrointestinal bacterium and E. coli (100, 3110 and 25922 (ATCC)) for the evaluation of efflux potential. The screening panel BRD pathogens were assessed in determining antibacterial activity of the Formula (1) compounds.
(§2) All relevant BRD pathogens were initially screened at a top concentration of 64 μg/mL of a Formula (1) compound in an eleven-point dilution series. […] If an Example was purified further, the MICs moved […] essentially two dilutions across all strains tested in the screening panel.
(§3) In-Vitro MIC Model Compounds were analyzed for antibacterial activity against a panel of animal health specific gram-positive and gram-negative clinical strains by diluting compounds in DMSO to an appropriate stock concentration to determine the Minimal Inhibitory Concentration (MIC) via a semi-automated broth micro-dilution method (CLSI reference method) with QC strains and anti-microbial agent(s). Specifically, bacteria were grown overnight on TSA w/5% sheep blood agar plates and diluted in saline buffer to a McFarland Standard 0.5, then further diluted in cation-ion adjusted Mueller Hinton Broth to a final concentration of approximately 5×10^5 CFU/mL. 100 μL of inoculated media was added to 96-well plate(s) with 3 μL of serially diluted compound in each row. Depending on strain (see CLSI reference method), bacteria were incubated 18-22 hours at 35-37° C. in ambient air, with 5% CO2 or anaerobically (up to 48 hours).

P. multocida [1] = assay: Murine P. multocida intranasal challenge study, treatment 18 hours after challenge, survival; assay type: in vivo, mice; conditions: subcutaneous 18 hours after challenge (5×10^3 CFU/mouse); tulathromycin 16 mg/kg, M9 32 mg/kg, ceftiofur 9 mg/kg
Description: In one murine P. multocida intranasal challenge study, mice were administered tulathromycin (16 mg/kg; T02), M9 (32 mg/kg; T03), or ceftiofur (9 mg/kg; T04) by subcutaneous injection 18 hours after bacterial challenge (5×10^3 CFU/mouse) for lung tissue RNA sequence analysis. Survival at Day 7 was about 80%, 50%, and 90% for T02, T03, and T04, respectively, compared to placebo at 0%. Differential gene expression from total lung tissue RNA sequence analysis indicated at least 226 unique genes were up or down regulated (with significance) for T03. Output from ingenuity pathway analysis of these unique genes predicted major upstream regulators of the involved pathways. Data was analyzed based on the number of genes being modulated in the same direction that were associated with a given upstream regulator. An activation z-score of 2 or greater is considered significant and the direction change is indicated by + (activated) or -(inhibited). The top 5 pathways included: IL-9 signaling, glucocorticoid receptor signaling, prolactin signaling, JAK STAT signaling, and IL-17 signaling. The top 6 upstream regulators (activation z-score) included: lipopolysaccharide (−6.725), TNF (−4.669), IFNγ (−5.759), IL-1β (−5.947), STAT1 (−2.787), and poly rl: rC-RNA (−5.289). Even though this study was run in the murine model, the top upstream regulators identified as being modulated by M9 include an almost ubiquitous overlap with the pathways identified in the natural disease study as being key mediators in BRD, and therefore is modulating highly relevant pathways in BRD pathobiology.

[2] = test system: M. haemolytica (strain: OSU-012103-BHI); assay: Bovine M. haemolytica intratracheal lung challenge model, mortality; assay type: in vivo; conditions: M. haemolytica challenge Day 0; subcutaneous Day -1; M9 10 mg/kg, Draxxin 2.5 mg/kg; 6 animals
Description: To evaluate immunomodulation effects and potential biomarkers, a bovine M. haemolytica (strain: OSU-012103-BHI) intratracheal lung challenge model study was completed utilizing M9 treatment in the presence and absence of bacterial challenge and a Draxxin® comparator. […] Animals were administered 0.05 mL/kg saline (T01), 10 mg/kg M9 (T02); Draxxin 2.5 mg/kg (T03) and 10 mg/kg M9 (T04) by subcutaneous injection on Day-1. Dose was based on body weight. Animals were challenge on Day 0 with the exception of T04. Blood was collected longitudinally throughout the study for biomarker evaluation panel (e.g., IL-6 and CD163) including two baseline samples prior to treatment. FIG. 4A depicts the area under the curve concentrations for IL-6 protein for individual animals against percent lung lesion scores and FIG. 4B depicts the CD163 fold change area under the curve for individual animals against percent lung lesion scores. Data is represented as percent lung lesion scores against the area under the curve (AUC) for IL-6 protein (immunoassay expressed in pg/mL) and CD163 (flow cytometric mean fluorescent intensity (MFI) in fold change from baseline). In both assays, a 2-fold change is typically considered to be relevant.

IL-6 = IL-6 biomarker in bovine M. haemolytica challenge; assay type: in vivo
Description: Cytokine Detection—An MSD U-Plex cytokine assay was developed following the MSD U-Plex protocol guide and included biotinylated capture antibodies against: bovine Interleukin (IL)-1β (Biorad), bovine IL-6 (R&D Systems) and bovine tumor necrosis factor (TNF)-α (R&D Systems). The anti-IL-1β antibody was biotinylated using EZ-Link Sulfo-NHS-Biotin (Thermo Scientific) at a challenge ratio of 1:20 according to manufacturer instructions. Assay calibrators (Kingfisher) were diluted to a concentration of […] in control lithium heparin plasma, followed by 4-fold serial dilutions into plasma. The detection antibodies were sulfo-tagged following the MSD quick guide conjugation protocol using a challenge ratio of 1:20. Antibodies were used at the following concentrations: anti-IL-1β at 1 μg/mL, anti-IL-6 at 1 μg/mL and anti-TNF-α at 0.5 μg/mL. Cytokines were quantified according to manufacturer's instructions using a chemiluminescent readout. In brief, 0.5 mL of all biotinylated antibodies were diluted to 10 μg/mL with Diluent 100 and paired to their respective linkers by adding 750 μL of supplied Linker solution and incubated for 30 minutes followed by addition of Stop solution for another 30 minutes. […] Plates were washed a further three times before addition of 150 μL 2X Read buffer and read immediately on the SI6000 instrument (MSD). […]

M. haemolytica = assay: MIC, M. haemolytica strains; assay type: cell-based
Description: as §1, §2, §3

P. multocida [3] = assay: MIC, P. multocida strains; assay type: cell-based
Description: as §1, §2, §3

H. somni = assay: MIC, H. somni strains; assay type: cell-based
Description: as §1, §2, §3

[4] = test system: natural bovine respiratory disease (BRD); assay: Natural bovine respiratory disease study, treatment failure; assay type: in vivo, beef calves; conditions: Zactran group T04 (dose not given), 14-day observation
[5] = lung isolates at necropsy, natural BRD study, n=116
[6] = lung isolates at necropsy, natural BRD study, n=33
[7] = lung isolates at necropsy, natural BRD study, n=25

CCCNC[C@]1(O)[C@H](C)O[C@@H](O[C@H]2[C@H](C)[C@@H](O[C@@H]3O[C@H](C)C[C@H](N(C)C)[C@H]3O)[C@](C)(O)C[C@@H](C)CN[C@H](C)[C@@H](O)[C@](C)(O)[C@@H](CC)OC(=O)[C@@H]2C)C[C@@]1(C)OC [tulathromycin, (2R,3S,4R,5R,8R,10R,11R,12S,13S,14R)-11-(((2S,3R,4S,6R)-4-(dimethylamino)-3-hydroxy-6-methyltetrahydro-2H-pyran-2-yl)oxy)-2-ethyl-3,4,10-trihydroxy-13-(((2R,4R,5S,6S)-5-hydroxy-4-methoxy-4,6-dimethyl-5-((propylamino)methyl)tetrahydro-2H-pyran-2-yl)oxy)-3,5,8, 10, 12, 14-hexamethyl-1-oxa-6-azacyclopentadecan-15-one] was tested, and the MIC (E. coli; E. coli 25922) was 2 µg/mL (≈ 2.48 µM), the MIC (E. coli; E. coli W3110) was 8 µg/mL (≈ 9.92 µM) and the “Survival at Day 7” value (P. multocida [1]) was “about 80%”. For the same compound, the Mortality [2] was 0/6 and the IL-6 levels (IL-6) was “significantly reduced IL-6 levels”.
With CCCN1C[C@H](C)[C@@H](O)[C@](C)(O)[C@@H](CC)OC(=O)[C@H](C)[C@@H](O[C@H]2C[C@@](C)(OC)[C@@H](O)[C@H](C)O2)[C@H](C)[C@@H](O[C@@H]2O[C@H](C)C[C@H](N(C)C)[C@H]2O)[C@](C)(O)C[C@H]1C [gamithromycin, reference compound] the MIC50 (M. haemolytica; [5]) was 1 µg/mL (≈ 1.29 µM), the MIC90 (M. haemolytica; [5]) was over 64 µg/mL and the “MIC values, range” value (M. haemolytica; the same M. haemolytica strains of the panel) was 0.5 to 1 µg/mL. The MIC50 (P. multocida [3]; [6]) was 1 µg/mL (≈ 1.29 µM), the MIC90 (P. multocida [3]; [6]) was over 64 µg/mL and the “MIC values, range” value (P. multocida [3]; the same P. multocida strains of the panel) was 1 to 2 µg/mL. For the same compound, the “MIC values, range” value (H. somni; H. somni strains) was 0.25 to 8 µg/mL, the MIC50 (H. somni; [7]) was 0.25 µg/mL (≈ 0.322 µM) and the MIC90 (H. somni; [7]) was 2 µg/mL (≈ 2.57 µM). For the same compound, the “MIC Range” value (H. somni; [7]) was 0.12 to 2 µg/mL and the Percent failure [4] was 29.8%.
